Experimental data taken from patent US9102932B2, “Orthogonal translation components for the in vivo incorporation of unnatural amino acids” (The Scripps Research Institute, priority 2004, dated 2015).

Assays:
[1] = Photodecaging of O-(2-nitrobenzyl)-L-tyrosine by irradiation at 365 nm, LC/MS; format: physicochemical
Description: FIG. 9 provides concentration curve assays illustrating the experimentally observed photodecaging (photoactivation) of the caged tyrosine molecule O-(2-nitrobenzyl)-L-tyrosine. Photodecaging of O-(2-nitrobenzyl)-L-tyrosine was illustrated by irradiation of a 0.2 mM amino acid solution in water using a handheld UV lamp (365 nm at 10 mm distance). Aliquots were taken at specific time points and analyzed by LC/MS. The concentrations of O-(2-nitrobenzyl)-L-tyrosine (squares) and the corresponding decaged species (circles) are shown.
Irradiation of O-(2-nitrobenzyl)-L-tyrosine (synthesized from L-tyrosine as described in Miller et al., Neuron 1998, 20, 619) at 365 nm induces cleavage of the benzylic CO-bond and rapid formation of the decaged amino acid (t1/2=4 min, see supporting information), as illustrated schematically in FIG. 8.
Photodecaging of O-(2-nitrobenzyl)-L-tyrosine can be experimentally observed, as illustrated in the experimental results shown in FIG. 9. As shown in this figure, the photodecaging of O-(2-nitrobenzyl)-L-tyrosine was studied by irradiation of a 0.2 mM solution in water (one well of a six-well plate) using a handheld UV lamp (365 nm at 10 mm distance). Aliquots were taken at specific time points and analyzed by LC/MS. 50% decaging was achieved after approximately four minutes.

[2] = test system: Z domain protein gene with amber codon at seventh position; assay: Expression of amber mutant Z domain protein with unnatural amino acid, SDS-PAGE and MALDI-TOF MS; format: cell-based, E. coli
Description: To confirm that the observed phenotype is caused by the site-specific incorporation of p-ethylthiocarbonyl-L-phenylalanine by the mutRNACUA-mutTyrRS pair, an amber codon was substituted for the seventh position (Tyr) in the gene encoding the Z domain protein (Nilsson et al., Protein Eng. 1987, 1, 107-113) fused to a C-terminal His6 tag. Protein was expressed in the presence or absence of 1 mM p-ethylthiocarbonyl-L-phenylalanine and purified by Ni-NTA chromatography. […]
Additional evidence for the site specific incorporation of p-ethylthiocarbonyl-L-phenylalanine was obtained by matrix-assisted laser desorption/ionization time-of-flight mass spectrometry (MALDI-TOF MS). In addition to the observation of an experimental average mass of 8006 Da for the intact Tyr p-ethylthiocarbonyl-L-phenylalanine protein (MTheoretical=8002 Da, see, FIG. 16), a minor peak corresponding to the mutant protein without the first methionine moiety in acetylated form (MExperimental=7913 Da vs. MTheoretical=7913 Da) and a major peak corresponding to the mutant protein without the first methionine moiety (MExperimental=7871 Da vs. MTheoretical=7871 Da) were also detected (FIG. 16). Another major peak of 7828 Da was present that corresponds to Z domain protein containing a free carboxylic acid group instead of a thioester moiety at position 7, which has a calculated mass of 7827 Da in its protonated form. […]

[3] = test system: human superoxide dismutase bearing amber codon at position 33 (hSOD-33TAG-His6); assay: Expression of hSOD-33TAG-His6 in yeast with mutant E. coli leucyl-tRNA synthetases, SDS-PAGE; format: cell-based; settings: yeast host cells
Description: To increase hydrolytic activity towards leucine, residues T252 and V338 in the E. coli synthetase editing domain were exchanged to alanine by Quikchange mutagenesis in order to enlarge the binding pocket (see, FIG. 6A). […] High selectivity of this mutant was further confirmed by MALDI TOF MS of hSOD-33TAG-His6.
To evolve a more efficient oNBS translation system, the selected clone 3H11 synthetase was diversified by error prone PCR, again using three different mutagenicities, to introduce one, two or five mutations per gene, yielding an overall diversity of 1×10^7 clones. The positions in the leucyl-tRNA-synthetase enzyme that were targeted for randomization were M40, L41, Y499, Y527 and H537. The protocols used herein follow the general methodologies described in the art, e.g., Wu et al., Journal of the American Chemical Society 126:14306-14307 (2004); and International Application No. PCT/US 2005/034002, filed Sep. 21, 2005, by Deiters et al.
Sequencing of the G2-6 clone identified five additional mutations throughout the enzyme in comparison to the initial 3H11 synthetase starting material (positions S31G, T247A, T248S, M617I and V673A). Additional mutations (caused during library construction) found in all clones throughout the library were also observed as follows: H67R, N196T, R262A and S497C. […]

N[C@@H](Cc1ccc(OCc2ccccc2[N+](=O)[O-])cc1)C(=O)O [O-(2-nitrobenzyl)-L-tyrosine]
Decaging ([1]; after approximately four minutes, 0.2 mM solution in water, handheld UV lamp 365 nm at 10 mm distance): 50%
half-life at 0.2 mM ([1]; solution in water under UV irradiation (365 nm), irradiation at 365 nm, read-out: t1/2 of formation of the decaged amino acid): 4 min

CC(=O)CC(=O)c1ccc(C[C@H](N)C(=O)O)cc1 [p-(3-oxobutanoyl)-L-phenylalanine]
Fidelity for the incorporation ([2]; MALDI-TOF MS, signal-to-noise ratio >400, evolved mutRNACUA^Tyr-mutTyrRS pair): > 99%
Incorporation efficiency compared to tyrosine ([2]; Z domain protein, seventh position, 1 mM unnatural amino acid, SDS-PAGE): around 30%

B1: clone 3H11 (protein)
chain: MEEQYRPEEIESKVQLHWDEKRTFEVTEDESKEKYYCLSWSPYPSGRLHMGHVRNYTIGDVIARYQRMLGKNVLQPIGWDAFGLPAEGAAVKNNTAPAPWTYDNIAYMKNQLKMLGFGYDWSRELATCTPEYYRWEQKFFTELYKKGLVYKKTSAVNWCPNDQTVLANEQVIDGCCWRCDTKVERKEIPQWFIKITAYADELLNDLDKLDHWPDTVKTMQRNWIGRSEGVEITFNVNDYDNTLTVYTTRPDTFMGCTYLAVAAGHPLAQKAAENNPELAAFIDECRNTKVAEAEMATMEKKGVDTGFKAVHPLTGEEIPVWAANFVLMEYGTGAVMAVPGHDQRDYEFASKYGLNIKPVILAADGSEPDLSQQALTEKGVLFNSGEFNGLDHEAAFNAIADKLTAMGVGERKVNYRLRDWGVSRQRYWGAPIPMVTLEDGTVMPTPDDQLPVILPEDVVMDGITSPIKADPEWAKTTVNGMPALRETDTFDTFMESCWIYARYTCPQYKEGMLDSEAANYWLPVDIAIGGIEHAIMGLLYFRFFHKLMRDAGMVNSDEPAKQLLCQGMVLADAFYYVGENGERNWVSPVDAIVERDEKGRIVKAKDAAGHELVYTGMSKMSKSKNNGIDPQVMVERYGADTVRLFMMFASPADMTLEWQESGVEGANRFLKRVWKLVYEHTAKGDVAALNVDALTENQKALRRDVHKTIAKVTDDIGRRQTFNTAIAAIMELMNKLAKAPTDGEQDRALMQEALLAVVRMLNPFTPHICFTLWQELKGEGDIDNAPWPVADEKAMVEDSTLVVVQVNGKVRAKITVPVDATEEQVRERAGQEHLVAKYLDGVTVRKVIYVPGKLLNLVVG
modifications: o-nitrobenzylcysteine aminoacyl-tRNA synthetase
oNBS incorporation efficiency compared to an oNBC amino acid (in words) [3]: twofold reduced efficiency
